Laboratory results reported in patent US20100267779A1, “Novel Compounds and Methods of Using Them” (SYNDAX PHARMACEUTICALS, INC., priority 2007, published 2010).

Test system: HDAC
Experiment: Alternative HDAC activity assay (Cayman Chemicals fluorescent-based HDAC activity assay)
Type: biochemical
Conditions: acetylated lysine substrate, HDAC developer, fluorescence readout; compared with MS-275
Method: Cayman Chemicals markets a commercial fluorescent-based HDAC activity assay. The assay utilizes a fluorescent-based method for measuring HDAC activity that eliminates radioactivity, extraction or chromatography. The assay requires two steps: first, an acetylated lysine substrate is incubated with samples containing HDAC activity. Deacetylation sensitizes the substrate such that treatment with the HDAC developer in the second step releases a fluorescent product. The fluorophore can be analyzed using a fluorescence plate reader or a fluorometer with […].

Compound	HDAC activity (fluorescent-based HDAC activity assay, FIG. 1)
C[C@@H](OC(=O)NCc1ccc(C(=O)Nc2ccccc2N)cc1)c1cccnc1 [(R)-1-(pyridin-3-yl)ethyl 4-(2-aminophenylcarbamoyl)benzylcarbamate]	activity similar to MS-275
C[C@H](OC(=O)NCc1ccc(C(=O)Nc2ccccc2N)cc1)c1cccnc1 [(S)-1-(pyridin-3-yl)ethyl 4-(2-aminophenylcarbamoyl)benzylcarbamate]	activity similar to MS-275
